{"source": "patent US9044508B2", "about": "“Concentrated aqueous azalide formulations” (INSITE VISION CORPORATION, priority 2013, dated 2015)", "origin": "cited, not measured here", "details": "aqueous formulation"}
{"smiles": "CC[C@H]1OC(=O)[C@H](C)[C@@H](O[C@H]2C[C@@](C)(OC)[C@@H](O)[C@H](C)O2)[C@H](C)[C@@H](O[C@@H]2O[C@H](C)C[C@H](N(C)C)[C@H]2O)[C@](C)(O)C[C@@H](C)CN(C)[C@H](C)[C@@H](O)[C@]1(C)O", "note": "[azithromycin, N-methyl-1′-aza-10-deoxo-10-dihydroerythromycin]", "values": [{"measurement": "pH of maximum stability", "result": "about 6.3"}]}
